Test results from US11572590B2, “Methods for evaluating tumor cell spheroids using 3D microfluidic cell culture device” (Dana-Farber Cancer Institute, Inc., priority 2017, dated 2023).
Read-outs that look alike come from different tables or passages of the source.

Columns and labels:
Assay in all cases: SelectScreen Kinase Profiling, single point inhibition and IC50 for off-target kinases
Type in all cases: biochemical
off-target kinases [1] = target: off-target kinases (Homo sapiens, UniProt Q96RR4); settings: CAMKK2 (CaMKK beta), LanthaScreen Binding
Sequence of off-target kinases (Homo sapiens, UniProt Q96RR4) (Q96RR4 whole entry): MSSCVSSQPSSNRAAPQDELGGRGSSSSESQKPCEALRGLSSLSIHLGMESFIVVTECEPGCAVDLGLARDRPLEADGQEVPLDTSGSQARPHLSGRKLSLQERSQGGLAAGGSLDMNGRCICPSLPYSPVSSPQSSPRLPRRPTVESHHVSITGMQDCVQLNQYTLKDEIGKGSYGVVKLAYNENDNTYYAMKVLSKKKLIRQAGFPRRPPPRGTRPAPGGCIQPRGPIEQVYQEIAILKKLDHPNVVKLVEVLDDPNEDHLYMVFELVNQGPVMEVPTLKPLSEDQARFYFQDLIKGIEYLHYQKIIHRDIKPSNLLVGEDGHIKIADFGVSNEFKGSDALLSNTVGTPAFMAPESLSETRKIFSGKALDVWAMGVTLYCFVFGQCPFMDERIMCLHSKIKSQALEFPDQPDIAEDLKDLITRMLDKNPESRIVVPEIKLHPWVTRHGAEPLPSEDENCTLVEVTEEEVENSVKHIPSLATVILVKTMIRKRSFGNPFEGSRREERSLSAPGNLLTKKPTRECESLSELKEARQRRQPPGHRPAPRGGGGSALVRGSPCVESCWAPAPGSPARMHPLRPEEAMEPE

off-target kinases [2] = target: off-target kinases (Homo sapiens, UniProt P37023); settings: ACVRL1 (ALK1), LanthaScreen Binding
Sequence of off-target kinases (Homo sapiens, UniProt P37023) (P37023 22-503): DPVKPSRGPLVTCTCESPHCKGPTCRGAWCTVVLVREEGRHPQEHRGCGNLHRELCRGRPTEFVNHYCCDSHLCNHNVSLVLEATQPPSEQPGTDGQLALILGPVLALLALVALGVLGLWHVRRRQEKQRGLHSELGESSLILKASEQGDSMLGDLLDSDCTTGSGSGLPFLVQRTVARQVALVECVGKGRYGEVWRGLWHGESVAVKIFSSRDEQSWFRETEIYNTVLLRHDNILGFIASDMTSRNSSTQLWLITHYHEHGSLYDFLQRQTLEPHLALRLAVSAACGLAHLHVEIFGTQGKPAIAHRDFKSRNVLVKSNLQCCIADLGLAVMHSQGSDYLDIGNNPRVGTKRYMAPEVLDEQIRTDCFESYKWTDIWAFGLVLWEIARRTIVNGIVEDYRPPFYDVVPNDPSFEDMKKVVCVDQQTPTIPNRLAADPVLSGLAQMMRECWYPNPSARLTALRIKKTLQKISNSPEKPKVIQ

off-target kinases [3] = target: off-target kinases (Homo sapiens, UniProt P10721); settings: KIT, ZLYTE, ATP Km app
Sequence of off-target kinases (Homo sapiens, UniProt P10721) (P10721 26-976): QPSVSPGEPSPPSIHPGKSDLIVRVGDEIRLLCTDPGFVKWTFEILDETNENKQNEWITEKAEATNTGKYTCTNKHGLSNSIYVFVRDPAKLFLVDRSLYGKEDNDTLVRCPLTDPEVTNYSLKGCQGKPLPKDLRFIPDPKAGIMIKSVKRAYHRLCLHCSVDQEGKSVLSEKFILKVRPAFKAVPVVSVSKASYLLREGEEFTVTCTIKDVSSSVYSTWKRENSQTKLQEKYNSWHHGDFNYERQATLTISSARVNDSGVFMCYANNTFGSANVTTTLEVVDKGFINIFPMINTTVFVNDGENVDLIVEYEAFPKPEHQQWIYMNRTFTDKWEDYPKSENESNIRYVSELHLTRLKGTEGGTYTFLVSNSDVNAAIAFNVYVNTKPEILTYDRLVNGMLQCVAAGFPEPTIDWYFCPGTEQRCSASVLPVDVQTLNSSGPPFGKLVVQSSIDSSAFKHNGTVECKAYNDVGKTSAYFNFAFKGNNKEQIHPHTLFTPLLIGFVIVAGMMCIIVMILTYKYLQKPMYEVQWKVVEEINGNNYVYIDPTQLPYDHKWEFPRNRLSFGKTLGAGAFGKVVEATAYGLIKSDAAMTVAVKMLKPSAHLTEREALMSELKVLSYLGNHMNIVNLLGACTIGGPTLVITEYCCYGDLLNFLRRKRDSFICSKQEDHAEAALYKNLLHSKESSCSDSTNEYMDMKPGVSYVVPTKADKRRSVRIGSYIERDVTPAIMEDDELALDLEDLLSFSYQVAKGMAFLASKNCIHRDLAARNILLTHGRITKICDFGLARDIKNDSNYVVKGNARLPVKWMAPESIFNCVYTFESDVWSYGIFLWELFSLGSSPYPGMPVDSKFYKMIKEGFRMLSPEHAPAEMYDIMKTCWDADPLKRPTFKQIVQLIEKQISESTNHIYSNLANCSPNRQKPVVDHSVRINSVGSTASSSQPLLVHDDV

off-target kinases [4] = target: off-target kinases (Homo sapiens, UniProt Q8N5S9); settings: CAMKK1 (CAMKKA), LanthaScreen Binding
Sequence of off-target kinases (Homo sapiens, UniProt Q8N5S9) (Q8N5S9 whole entry): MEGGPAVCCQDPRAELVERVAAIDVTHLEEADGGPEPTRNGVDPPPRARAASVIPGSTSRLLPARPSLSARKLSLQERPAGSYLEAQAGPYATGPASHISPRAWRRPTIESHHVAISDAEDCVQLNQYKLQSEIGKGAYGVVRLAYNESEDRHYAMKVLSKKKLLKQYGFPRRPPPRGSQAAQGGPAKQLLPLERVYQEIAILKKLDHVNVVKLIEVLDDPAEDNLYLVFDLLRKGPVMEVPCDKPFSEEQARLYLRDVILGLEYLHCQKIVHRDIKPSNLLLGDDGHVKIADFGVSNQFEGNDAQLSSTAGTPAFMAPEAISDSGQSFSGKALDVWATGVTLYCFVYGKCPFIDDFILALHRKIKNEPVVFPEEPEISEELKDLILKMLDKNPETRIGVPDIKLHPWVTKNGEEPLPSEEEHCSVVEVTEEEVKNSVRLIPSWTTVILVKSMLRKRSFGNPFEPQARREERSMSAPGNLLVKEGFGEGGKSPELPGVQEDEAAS

off-target kinases [5] = target: off-target kinases (Homo sapiens, UniProt P49137); settings: MAPKAPK2, ZLYTE, ATP Km app
Sequence of off-target kinases (Homo sapiens, UniProt P49137) (P49137 whole entry): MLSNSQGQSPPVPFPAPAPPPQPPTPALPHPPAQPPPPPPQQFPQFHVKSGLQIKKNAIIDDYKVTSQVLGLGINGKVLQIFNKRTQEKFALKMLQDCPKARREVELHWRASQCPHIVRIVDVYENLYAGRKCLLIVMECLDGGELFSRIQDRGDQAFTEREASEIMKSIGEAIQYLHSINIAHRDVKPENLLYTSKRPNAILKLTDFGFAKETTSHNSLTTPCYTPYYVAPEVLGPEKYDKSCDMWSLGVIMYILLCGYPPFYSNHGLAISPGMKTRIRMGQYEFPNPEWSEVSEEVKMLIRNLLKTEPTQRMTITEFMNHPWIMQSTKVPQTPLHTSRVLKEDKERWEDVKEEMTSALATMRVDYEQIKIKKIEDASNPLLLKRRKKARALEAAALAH

off-target kinases [6] = target: off-target kinases (Homo sapiens, UniProt Q96SB4); settings: SRPK1, ZLYTE, ATP Km app
off-target kinases [7] = target: off-target kinases (Homo sapiens, UniProt Q9UM73); settings: ALK, ZLYTE, ATP Km app
Sequence of off-target kinases (Homo sapiens, UniProt Q9UM73) (Q9UM73 19-1620): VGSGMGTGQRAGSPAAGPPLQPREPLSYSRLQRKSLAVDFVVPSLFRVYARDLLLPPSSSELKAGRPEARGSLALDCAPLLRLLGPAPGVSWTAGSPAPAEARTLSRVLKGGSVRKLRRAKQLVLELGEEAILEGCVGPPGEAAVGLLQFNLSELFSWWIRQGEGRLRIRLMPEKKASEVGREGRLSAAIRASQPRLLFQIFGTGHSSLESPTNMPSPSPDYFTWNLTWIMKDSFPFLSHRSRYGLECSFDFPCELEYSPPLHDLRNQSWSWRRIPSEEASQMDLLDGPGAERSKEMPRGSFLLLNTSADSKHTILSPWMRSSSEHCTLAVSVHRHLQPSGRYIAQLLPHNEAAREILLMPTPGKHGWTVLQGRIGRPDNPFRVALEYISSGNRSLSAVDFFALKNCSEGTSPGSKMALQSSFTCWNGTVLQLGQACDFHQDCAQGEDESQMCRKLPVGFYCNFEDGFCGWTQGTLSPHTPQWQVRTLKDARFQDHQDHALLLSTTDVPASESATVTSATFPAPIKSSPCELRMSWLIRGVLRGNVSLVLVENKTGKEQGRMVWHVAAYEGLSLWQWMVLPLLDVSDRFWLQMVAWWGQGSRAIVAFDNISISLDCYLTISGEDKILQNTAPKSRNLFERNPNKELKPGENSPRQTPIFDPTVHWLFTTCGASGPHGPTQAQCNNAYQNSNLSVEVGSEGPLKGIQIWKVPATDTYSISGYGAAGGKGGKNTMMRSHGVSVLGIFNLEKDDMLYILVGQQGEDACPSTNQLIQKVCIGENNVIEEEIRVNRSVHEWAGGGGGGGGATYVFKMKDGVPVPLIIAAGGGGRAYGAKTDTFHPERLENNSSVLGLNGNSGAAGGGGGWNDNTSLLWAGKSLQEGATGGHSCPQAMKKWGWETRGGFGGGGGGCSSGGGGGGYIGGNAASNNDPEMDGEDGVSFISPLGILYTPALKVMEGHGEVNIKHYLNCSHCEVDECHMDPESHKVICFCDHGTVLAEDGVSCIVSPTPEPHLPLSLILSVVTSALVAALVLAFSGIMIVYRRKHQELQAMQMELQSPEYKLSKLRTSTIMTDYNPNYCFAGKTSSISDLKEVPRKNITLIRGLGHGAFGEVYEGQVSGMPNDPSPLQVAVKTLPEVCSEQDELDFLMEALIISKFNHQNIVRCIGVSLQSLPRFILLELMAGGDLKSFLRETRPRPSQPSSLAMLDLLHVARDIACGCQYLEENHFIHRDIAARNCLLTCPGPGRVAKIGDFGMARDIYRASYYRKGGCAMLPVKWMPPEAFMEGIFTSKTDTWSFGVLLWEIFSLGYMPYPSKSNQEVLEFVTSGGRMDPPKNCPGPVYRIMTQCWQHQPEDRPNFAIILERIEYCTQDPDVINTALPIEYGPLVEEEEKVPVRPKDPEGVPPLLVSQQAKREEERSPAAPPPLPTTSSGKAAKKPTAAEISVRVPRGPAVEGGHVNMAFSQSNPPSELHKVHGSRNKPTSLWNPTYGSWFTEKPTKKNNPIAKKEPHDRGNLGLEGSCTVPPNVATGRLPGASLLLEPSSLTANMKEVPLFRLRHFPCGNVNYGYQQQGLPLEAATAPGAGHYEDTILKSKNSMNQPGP

off-target kinases [8] = target: off-target kinases (Homo sapiens, UniProt P00519); settings: ABL1, ATP Km app, ZLYTE
off-target kinases [9] = target: T1, off-target kinases (Homo sapiens, UniProt Q9UPZ9); settings: ICK, LanthaScreen Binding
T1 sequence (Q9UPZ9 1-632): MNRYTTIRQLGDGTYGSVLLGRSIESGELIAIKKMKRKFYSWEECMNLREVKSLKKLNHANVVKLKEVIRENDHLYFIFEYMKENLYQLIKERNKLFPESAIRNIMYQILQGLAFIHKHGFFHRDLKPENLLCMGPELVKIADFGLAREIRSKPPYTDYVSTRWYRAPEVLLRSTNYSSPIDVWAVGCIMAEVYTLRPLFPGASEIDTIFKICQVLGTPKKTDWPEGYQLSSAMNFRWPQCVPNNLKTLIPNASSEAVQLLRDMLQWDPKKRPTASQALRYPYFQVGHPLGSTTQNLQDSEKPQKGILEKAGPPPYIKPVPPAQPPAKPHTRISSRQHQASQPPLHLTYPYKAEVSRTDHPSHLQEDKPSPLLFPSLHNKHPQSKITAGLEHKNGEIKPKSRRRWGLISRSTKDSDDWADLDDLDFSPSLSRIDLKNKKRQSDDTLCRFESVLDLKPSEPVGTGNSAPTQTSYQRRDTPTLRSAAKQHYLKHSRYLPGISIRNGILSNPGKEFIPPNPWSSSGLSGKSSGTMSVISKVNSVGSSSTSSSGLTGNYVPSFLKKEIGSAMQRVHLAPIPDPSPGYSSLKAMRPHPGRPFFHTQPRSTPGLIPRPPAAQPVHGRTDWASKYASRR

off-target kinases [10] = target: off-target kinases (Homo sapiens, UniProt Q9H2X6); settings: HIPK2, ZLYTE, ATP Km app
off-target kinases [11] = target: off-target kinases (Homo sapiens, UniProt P04626)

Molecule `N#Cc1cc(-c2ncnc(Nc3ccc(N4CCN(C5COC5)CC4)cc3)n2)ccc1OC1CCOCC1` [Compound 1, 5-(4-((4-(4-(oxetan-3-yl)piperazin-1-yl)phenyl)amino)-1,3,5-triazin-2-yl)-2-((tetrahydro-2H-pyran-4-yl)oxy)benzonitrile] has an inhibition (off-target kinases [1]; read-out: % Inhibition 1) of 7%, an inhibition (off-target kinases [1]; read-out: % Inhibition 2) of 9% and an inhibition (off-target kinases [1]; read-out: % Inhibition Avg) of 8%. For the same molecule, the inhibition (off-target kinases [2]; read-out: % Inhibition 1) was 33%, the inhibition (off-target kinases [2]; read-out: % Inhibition 2) was 38% and the inhibition (off-target kinases [2]; read-out: % Inhibition Avg) was 35%. For the same molecule, the inhibition (off-target kinases [3]; read-out: % Inhibition 1) was 1%, the inhibition (off-target kinases [3]; read-out: % Inhibition 2) was 5% and the inhibition (off-target kinases [3]; read-out: % Inhibition Avg) was 3%. For the same molecule, the inhibition (off-target kinases [4]; read-out: % Inhibition 1) was 2%, the inhibition (off-target kinases [4]; read-out: % Inhibition 2) was -1% and the inhibition (off-target kinases [4]; read-out: % Inhibition Avg) was 0%. It also gave an inhibition (off-target kinases [5]; read-out: % Inhibition 1) of 0%, an inhibition (off-target kinases [5]; read-out: % Inhibition 2) of -1% and an inhibition (off-target kinases [5]; read-out: % Inhibition Avg) of 0%. The inhibition (off-target kinases [6]; read-out: % Inhibition 1) was -1%, the inhibition (off-target kinases [6]; read-out: % Inhibition 2) was -2% and the inhibition (off-target kinases [6]; read-out: % Inhibition Avg) was -2%. It also gave an inhibition (off-target kinases [7]; read-out: % Inhibition 1) of 4%, an inhibition (off-target kinases [7]; read-out: % Inhibition 2) of -2% and an inhibition (off-target kinases [7]; read-out: % Inhibition Avg) of 1%. It also gave an inhibition (off-target kinases [8]; read-out: % Inhibition 1) of 48%, an inhibition (off-target kinases [8]; read-out: % Inhibition 2) of 51% and an inhibition (off-target kinases [8]; read-out: % Inhibition Avg) of 49%. The inhibition (off-target kinases [9]; read-out: % Inhibition 1) was 22%, the inhibition (off-target kinases [9]; read-out: % Inhibition 2) was 22% and the inhibition (off-target kinases [9]; read-out: % Inhibition Avg) was 22%. It also gave an inhibition (off-target kinases [10]; read-out: % Inhibition 1) of 21%, an inhibition (off-target kinases [10]; read-out: % Inhibition 2) of 19% and an inhibition (off-target kinases [10]; read-out: % Inhibition Avg) of 20%. For the same molecule, the inhibition (off-target kinases [11]; ERBB2 (HER2), ZLYTE, ATP Km app, read-out: % Inhibition 1) was 0%, the inhibition (off-target kinases [11]; ERBB2 (HER2), ZLYTE, ATP Km app, read-out: % Inhibition 2) was -3% and the inhibition (off-target kinases [11]; read-out: % Inhibition Avg) was -1%.
